Data from patent publication US10934286B2, “Heterocyclic sulfones as ROR gamma modulators” (BRISTOL-MYERS SQUIBB COMPANY, priority 2016, dated 2021).
Where a name gives a salt, the structure may show the parent alone.

Molecular target: T1, RORγ receptor (Homo sapiens, UniProt P51449)
T1 construct: Jurkat pEx/Gal/hRORγ CLBD/HYG pG51uc/blast; expressed in transfected cells
T1 sequence (P51449 269-508 limits assumed): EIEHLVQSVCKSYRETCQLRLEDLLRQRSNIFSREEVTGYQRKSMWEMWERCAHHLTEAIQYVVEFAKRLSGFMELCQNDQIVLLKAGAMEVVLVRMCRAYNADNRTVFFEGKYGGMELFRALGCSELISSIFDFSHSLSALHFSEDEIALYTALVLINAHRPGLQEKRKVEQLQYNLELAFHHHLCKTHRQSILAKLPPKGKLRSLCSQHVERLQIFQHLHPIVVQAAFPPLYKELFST
Test: General RORγ Gal4 reporter assay (inverse agonist activity, inhibition of luminescence)
Type: cell-based
Settings: Gal4-luciferase reporter in Jurkat cells stably over-expressing hRORγ LBD; overnight incubation; 40 μM to 0.67 nM
Procedure: General RORγ Gal4 Reporter Assay Inverse agonist activity of potential ligands to RORγ was measured by inhibition of luminescence in a Gal4-luciferase reporter assay in Jurkat cells.
The following day, cells were lysed with 10 μL of Steady-Glo Luciferase Assay System (Promega Cat. No. EZ550), and analyzed immediately. IC50 values were determined.

Row | Structure (SMILES) | IC50 [nM]
1 | C[C@H]1C[C@H](C(=O)O)CC[C@H]1C(=O)N1CCC2(S(=O)(=O)c3ccc(F)cc3)c3ncc(C(F)(C(F)(F)F)C(F)(F)F)cc3CCC12 (single isomer, unassigned) [Example 23, trifluoroacetate] | 318
2 | O=C1N[C@H](C(=O)N2CCC3(S(=O)(=O)c4cccc(F)c4)c4ccc(C(F)(C(F)(F)F)C(F)(F)F)nc4CCC23)[C@H]2C[C@@H]12 (single isomer, unassigned) [Example 34, trifluoroacetate] | 62
3 | O=C([C@@H]1C[C@@H](F)C(=O)N1CCO)N1CCC2(S(=O)(=O)c3ccc(F)cc3)c3ncc(C(F)(C(F)(F)F)C(F)(F)F)cc3CCC12 (single isomer, unassigned) [Example 36] | 110
4 | N#CCCN1C(=O)CC[C@H]1C(=O)N1CCC2(S(=O)(=O)c3ccc(F)cc3)c3cnc(OCc4ccccc4)cc3CCC12 (single isomer, unassigned) [Example 38] | 4250
5 | N#CCCN1C(=O)CC[C@H]1C(=O)N1CCC2(S(=O)(=O)c3ccc(F)cc3)c3ccc(OCc4c(Cl)cccc4Cl)nc3CCC12 (single isomer, unassigned) [Example 39] | 15
6 | N#CCCN1C(=O)CC[C@H]1C(=O)N1CCC2(S(=O)(=O)c3ccc(F)cc3)c3ccc(C(F)(C(F)(F)F)C(F)(F)F)nc3CCC12 (single isomer, unassigned) [Example 42] | 43
7 | CC(C)(O)CN1C(=O)[C@H](F)C[C@H]1C(=O)N1CCC2(S(=O)(=O)c3ccc(F)cc3)c3ccc(C(F)(C(F)(F)F)C(F)(F)F)nc3CCC12 (single isomer, unassigned) [Example 43] | 31
8 | CC(C)(O)CN1C(=O)[C@H](F)C[C@@H]1C(=O)N1CCC2(S(=O)(=O)c3ccc(F)cc3)c3ccc(C(F)(C(F)(F)F)C(F)(F)F)nc3CCC12 (single isomer, unassigned) [Example 44] | 168
9 | CC(C)(O)CN1C(=O)[C@@H]2C[C@@H]2[C@H]1C(=O)N1CCC2(S(=O)(=O)c3cccc(F)c3)c3cnc(C(F)(C(F)(F)F)C(F)(F)F)cc3CCC12 (single isomer, unassigned) [Example 51] | 22
10 | CC(C)(O)CN1C(=O)CCN1C(=O)N1CCC2(S(=O)(=O)c3ccc(F)cc3)c3ccc(C(F)(C(F)(F)F)C(F)(F)F)nc3CCC12 (single isomer, unassigned) [Example 54, 1-(9b-((4-fluorophenyl)sulfonyl)-7-(perfluoropropan-2-yl)-2,3,3a,4,5,9b-hexahydro-1H-pyrrolo[3,2-f]quinoline-3-carbonyl)-2-(2-hydroxy-2-methylpropyl)pyrazolidin-3-one] | 16
11 | C[C@H]1C[C@H](C(N)=O)CC[C@H]1C(=O)N1CCC2(S(=O)(=O)c3ccc(F)cc3)c3ncc(C(F)(C(F)(F)F)C(F)(F)F)cc3CCC12 (single isomer, unassigned) [Example 59] | 594
12 | O=C(N1CCC2(S(=O)(=O)c3ccccc3)c3ccc(OCc4c(Cl)cccc4Cl)nc3CCC12)C(F)(F)F (single isomer, unassigned) [Example 61] | 802
13 | O=C(N1CCC2(S(=O)(=O)c3ccccc3)c3ccc(OCc4c(Cl)cccc4Cl)nc3CCC12)C(F)(F)F (single isomer, unassigned) [Example 62] | 2440
14 | [2H]C([2H])([2H])N1C(=O)[C@H](F)C[C@H]1C(=O)N1CCC2(S(=O)(=O)c3ccc(F)cc3)c3ncc(C(F)(C(F)(F)F)C(F)(F)F)cc3CCC12 (some centres unmarked) [Example 2] | 69
15 | O=C([C@@H]1CCC(=O)N1Cc1ccc(F)cc1)N1CCC2(S(=O)(=O)c3ccc(F)cc3)c3ncc(C(F)(C(F)(F)F)C(F)(F)F)cc3CCC12 (some centres unmarked) [Example 3] | 61
16 | O=C(O)[C@H]1CC[C@H](C(=O)N2CCC3(S(=O)(=O)c4ccc(F)cc4)c4ncc(C(F)(C(F)(F)F)C(F)(F)F)cc4CCC23)CC1 (some centres unmarked) [Example 4] | 161
17 | NC(=O)[C@H]1CC[C@H](C(=O)N2CCC3(S(=O)(=O)c4ccc(F)cc4)c4ncc(C(F)(C(F)(F)F)C(F)(F)F)cc4CCC23)CC1 (some centres unmarked) [Example 5] | 78
18 | O=C(O)C12CCC(C(=O)N3CCC4(S(=O)(=O)c5ccc(F)cc5)c5ncc(C(F)(C(F)(F)F)C(F)(F)F)cc5CCC34)(CC1)CC2 (centres unmarked) [Example 6] | 54
19 | NC(=O)C12CCC(C(=O)N3CCC4(S(=O)(=O)c5ccc(F)cc5)c5ncc(C(F)(C(F)(F)F)C(F)(F)F)cc5CCC34)(CC1)CC2 (centres unmarked) [Example 7] | 83
20 | O=C(C1CCS(=O)(=O)CC1)N1CCC2(S(=O)(=O)c3ccc(F)cc3)c3ncc(C(F)(C(F)(F)F)C(F)(F)F)cc3CCC12 (centres unmarked) [Example 8] | 91
21 | O=C(O)C1CC2(C1)CC(C(=O)N1CCC3(S(=O)(=O)c4ccc(F)cc4)c4ncc(C(F)(C(F)(F)F)C(F)(F)F)cc4CCC13)C2 (centres unmarked) [Example 9] | 87
22 | O=C(CC1(O)CCS(=O)(=O)C1)N1CCC2(S(=O)(=O)c3ccc(F)cc3)c3ccc(C(F)(C(F)(F)F)C(F)(F)F)nc3CCC12 (centres unmarked) [Example 10] | 33
23 | O=C(CC1(O)CCS(=O)(=O)C1)N1CCC2(S(=O)(=O)c3ccccc3)c3ccc(C(F)(C(F)(F)F)C(F)(F)F)nc3CCC12 (centres unmarked) [Example 11] | 21
24 | O=C(C1CCS(=O)(=O)CC1)N1CCC2(S(=O)(=O)c3ccccc3)c3ccc(C(F)(C(F)(F)F)C(F)(F)F)nc3CCC12 (centres unmarked) [Example 12] | 9

Row | Structure (SMILES) | IC50 [nM]
25 | N#CCCN1C(=O)CC[C@H]1C(=O)N1CCC2(S(=O)(=O)c3cccc(F)c3)c3cnc(C(F)(C(F)(F)F)C(F)(F)F)cc3CCC12 (some centres unmarked) [Example 14] | 4
26 | O=C(C1CCS(=O)(=O)CC1)N1CCC2(S(=O)(=O)c3cccc(F)c3)c3cnc(C(F)(C(F)(F)F)C(F)(F)F)cc3CCC12 (centres unmarked) [Example 15] | 8
27 | O=C(O)C12CCC(C(=O)N3CCC4(S(=O)(=O)c5ccccc5)c5ccc(C(F)(C(F)(F)F)C(F)(F)F)nc5CCC34)(CC1)CC2 (centres unmarked) [Example 16] | 6
28 | CC(C)(O)C(=O)N1CCC2(S(=O)(=O)c3ccccc3)c3ccc(C(F)(C(F)(F)F)C(F)(F)F)nc3CCC12 (centres unmarked) [Example 17] | 45
29 | CC(C)(O)CC(=O)N1CCC2(S(=O)(=O)c3ccccc3)c3ccc(C(F)(C(F)(F)F)C(F)(F)F)nc3CCC12 (centres unmarked) [Example 18] | 30
30 | N#CCCN1C(=O)CC[C@H]1C(=O)N1CCC2(S(=O)(=O)c3ccccc3)c3ccc(C(F)(C(F)(F)F)C(F)(F)F)nc3CCC12 (some centres unmarked) [Example 19] | 13
31 | N#CCCN1C(=O)CC[C@H]1C(=O)N1CCC2(S(=O)(=O)c3cccc(F)c3)c3ccc(C(F)(C(F)(F)F)C(F)(F)F)nc3CCC12 (some centres unmarked) [Example 21] | 11
32 | O=C(C1CCS(=O)(=O)CC1)N1CCC2(S(=O)(=O)c3cccc(F)c3)c3ccc(C(F)(C(F)(F)F)C(F)(F)F)nc3CCC12 (centres unmarked) [Example 22] | 9
33 | O=C(O)[C@H]1CC[C@H](C(=O)N2CCC3(S(=O)(=O)c4cccc(F)c4)c4ccc(C(F)(C(F)(F)F)C(F)(F)F)nc4CCC23)CC1 (some centres unmarked) [Example 24] | 15
34 | C[C@H]1C[C@H](C(=O)O)CC[C@H]1C(=O)N1CCC2(S(=O)(=O)c3cccc(F)c3)c3ccc(C(F)(C(F)(F)F)C(F)(F)F)nc3CCC12 (some centres unmarked) [Example 25] | 12
35 | O=C(O)[C@H]1CC[C@H](C(=O)N2CCC3(S(=O)(=O)c4cccc(F)c4)c4cnc(C(F)(C(F)(F)F)C(F)(F)F)cc4CCC23)CC1 (some centres unmarked) [Example 26] | 13
36 | C[C@H]1C[C@H](C(=O)O)CC[C@H]1C(=O)N1CCC2(S(=O)(=O)c3cccc(F)c3)c3cnc(C(F)(C(F)(F)F)C(F)(F)F)cc3CCC12 (some centres unmarked) [Example 27] | 21
37 | O=C(O)[C@H]1CC[C@H](C(=O)N2CCC3(S(=O)(=O)c4ccccc4)c4ccc(C(F)(C(F)(F)F)C(F)(F)F)nc4CCC23)CC1 (some centres unmarked) [Example 28] | 8
38 | C[C@H]1C[C@H](C(=O)O)CC[C@H]1C(=O)N1CCC2(S(=O)(=O)c3ccccc3)c3ccc(C(F)(C(F)(F)F)C(F)(F)F)nc3CCC12 (some centres unmarked) [Example 29] | 13
39 | C[C@H]1C[C@H](C(=O)O)CC[C@H]1C(=O)N1CCC2(S(=O)(=O)c3ccc(F)cc3)c3cnc(C(F)(C(F)(F)F)C(F)(F)F)cc3CCC12 (some centres unmarked) [Example 30] | 51
40 | C[C@H]1C[C@H](C(=O)O)CC[C@H]1C(=O)N1CCC2(S(=O)(=O)c3ccc(F)cc3)c3ccc(C(F)(C(F)(F)F)C(F)(F)F)nc3CCC12 (some centres unmarked) [Example 32] | 5
41 | O=C(O)[C@H]1CC[C@H](C(=O)N2CCC3(S(=O)(=O)c4ccc(F)cc4)c4ccc(C(F)(C(F)(F)F)C(F)(F)F)nc4CCC23)CC1 (some centres unmarked) [Example 33] | 8
42 | O=C1N[C@H](C(=O)N2CCC3(S(=O)(=O)c4cccc(F)c4)c4cnc(C(F)(C(F)(F)F)C(F)(F)F)cc4CCC23)[C@H]2C[C@@H]12 (some centres unmarked) [Example 35] | 3300
43 | CC(C)(CO)CN1C(=O)[C@H](F)C[C@H]1C(=O)N1CCC2(S(=O)(=O)c3cccc(F)c3)c3ccc(C(F)(C(F)(F)F)C(F)(F)F)nc3CCC12 (some centres unmarked) [Example 37] | 9
44 | O=C(O)[C@H]1CC[C@H](C(=O)N2CCC3(S(=O)(=O)c4ccc(F)cc4)c4ccc(OCc5c(Cl)cccc5Cl)nc4CCC23)CC1 (some centres unmarked) [Example 40] | 12
45 | CC(C)(O)CN1C(=O)[C@H](F)C[C@@H]1C(=O)N1CCC2(S(=O)(=O)c3ccc(F)cc3)c3cnc(C(F)(C(F)(F)F)C(F)(F)F)cc3CCC12 (some centres unmarked) [Example 45] | 528
46 | CC(C)(O)CN1C(=O)[C@H](F)C[C@@H]1C(=O)N1CCC2(S(=O)(=O)c3cccc(F)c3)c3ccc(C(F)(C(F)(F)F)C(F)(F)F)nc3CCC12 (some centres unmarked) [Example 46] | 410
47 | CC(C)(O)CN1C(=O)[C@H](F)C[C@H]1C(=O)N1CCC2(S(=O)(=O)c3ccc(F)cc3)c3cnc(C(F)(C(F)(F)F)C(F)(F)F)cc3CCC12 (some centres unmarked) [Example 47] | 29
